Data published in US8653304B2, “2,3-dihydro-1H-indene-2-yl urea derivative and pharmaceutical application of same” (Toray Industries, Inc., priority 2009, dated 2014).

Key:
[1] = tested on: hyperalgesia in Bennett model; assay: Hyperalgesia in neuropathic pain model (Bennett model), plantar test; assay type: in vivo; conditions: SD rat, Bennett model day 14, oral 100 mg/kg, 90 minutes after administration; FIG. 2
Excerpt: The action of Compound (I) on hyperalgesia in pain models was studied. As the pain models, models partially modified from an inflammatory pain model (a carrageenin paw edema pain model) and neuropathic pain models (Bennett model and Chung model) described in documents (Anesth. Analg., 2009, Vol. 108, pp. 1680-1687; Pain, 1988, Vol. 33, pp. 87-107; and Pain, 1992, Vol. 50, pp. 355-363) were used.
The Bennett model was produced by lightly ligating the sciatic nerve in the left thigh of each Crl:CD (SD) rat (male, 6-week old, Charles River Laboratories Japan, Inc.) at 4 points with chromic catgut (4-0). Fourteen days after the Bennett model was produced, each test compound was orally administered, and plantar test was performed 90 minutes after the administration. The plantar test was carried out by measuring the pain threshold (sec) of the left footpad (model foot) using a plantar thermal stimulation device (Plantar test 7370, Ugo Basile) wherein the thermal stimulus intensity was set to 60. Each test compound was suspended in 0.5 w/v % methylcellulose (Wako Pure Chemical Industries, Ltd.) and the obtained solution was orally administered. Compound 46b described in the Examples was administered at a dose of 100 mg/kg, and gabapentin (Toronto Research Chemicals), which is an anticonvulsant, was administered as a comparative control agent at a dose of 100 mg/kg.

[2] = tested on: TNFα production; assay: Mouse LPS-induced cytokine production model; assay type: in vivo; conditions: BALB/c mouse, 50 mg/kg oral 30 minutes before LPS 1 mg/kg i.p., serum 60 minutes after LPS
Procedure: The action of Compound (I) on the TNFα production induced by LPS administration in a mouse was studied by a method partially modified from the method described in Journal of Immunology (1992, Vol. 148, pp. 1890-1897).
To each BALB/c mouse (male, 7 to 9-week old, Charles River Laboratories Japan, Inc.), LPS (0111:B4, SIGMA) was intraperitoneally administered at a dose of 1 mg/kg. Sixty minutes after the LPS administration, blood was collected from the abdominal vena cava under anesthesia and centrifuged for 15 minutes at 4° C. to obtain a serum. For the measurement of TNF-α in the serum, ELISA Development System (R&D Systems) was used. Each test compound was dissolved in DMSO (Final Concentration: 2%), and then the obtained solution was dissolved in a 27% aqueous solution of 2-hydroxypropyl-β-cyclodextrin (hereinafter referred to as “HP-β-CD”; Nihon Shokuhin Kako Co., Ltd.). Thirty minutes before the LPS administration, the resulting solution was orally administered at 50 mg/kg.

[3] = Metabolic stability in human CYP (human liver microsomes); assay type: in vitro ADME; conditions: human liver microsomes 0.5 mg/mL, NADPH, 37° C., comparative control compounds 5 μM
Procedure: Each test compound was mixed at a concentration of 2 μM with a phosphate buffer solution containing Human liver microsomes (Xenotech) in an amount of 0.5 mg/mL. Thereafter, NADPH was added thereto, and the obtained mixture was allowed to react at 37° C. for up to 30 minutes. The reaction was terminated by adding acetonitrile, and then the resultant was centrifuged for 10 minutes at 4° C. to collect a supernatant. The supernatant was pretreated by methanol extraction method, and the concentration of the compound was analyzed by LC/MS/MS (ESI positive mode). The compound remaining rate was calculated from the obtained concentration of the compound.

[4] = tested on: colonic disorders in DSS-induced chronic colitis model; assay: Colonic disorders in DSS-induced chronic colitis model; assay type: in vivo; conditions: BALB/c mouse, oral 10 mg/kg once Day 27, twice a day Day 28-31; scores Day 28-32
Excerpt: (§1) The action of Compound (I) on colonic disorders in inflammatory bowel disease models was studied. As the inflammatory bowel disease models, models partially modified from a TNBS-induced colitis model and a DSS-induced chronic colitis model described in documents (Gastroenterology, 1989, Vol. 96, pp. 29-36 and Am. J. Physiol. Gastrointest. Liver Physiol., 2004, Vol. 287, pp. G115-124) were used.
To each BALB/cCrSlc mouse (female, 9-week old, Japan SLC, Inc.), DSS (Molecular Weight: 36-50 kDa; MP Biomedicals) dissolved in sterile ultrapure water was administered via free drinking for 5 days from the day of the start of the administration via drinking water (this day was considered as Day 0 after the start of the administration via drinking water), and then switched to administration of sterile ultrapure water via free drinking for 5 days. This cycle was repeated again, and DSS was further administered via free drinking for another 7 days to produce the colitis model. As an index of colitis symptoms, stool consistency scores were used. The stool consistency scores were based on the following criteria: normal stool was defined as score 0; loose stool was defined as score 2; and diarrhea was defined as score 4. […]

[5] = tested on: skin swelling response in type IV allergic dermatitis model; assay: Skin swelling response in type IV allergic dermatitis model; assay type: in vivo; conditions: BALB/c mouse, 24 hours after induction
Procedure: (§2) The action of Compound (I) on skin swelling response in mouse allergic dermatitis models was studied. As the allergic dermatitis models, models partially modified from a type I allergic dermatitis model and a type IV allergic dermatitis model described in documents (Inflamm. Res., 1998, Vol. 47, pp. 506-511 and Int. Arch. Allergy. Appl. Immunol., 1990, Vol. 92, pp. 356-360) were used.
To the back of each BALB/c mouse (female, 7-week old, Charles River Laboratories Japan, Inc.), 25 μL of 0.5% DNFB solution dissolved in acetone:olive oil (4:1) was applied. On the next day, the same operations were repeated to actively sensitize the mouse. Four days after the sensitization, 20 μL of 0.2% DNFB solution dissolved in acetone:olive oil (4:1) was applied to the auricle of the sensitized mouse to induce inflammation. Twenty four hours after the induction, the thickness of the auricle was measured using a Digimatic Indicator (Mitutoyo). Each test compound was dissolved in ethanol and 20 μL of 0.5 w/v % solution was applied to the auricle at 1 hour before the induction; or each test compound was suspended in 0.5% methylcellulose (Wako Pure Chemical Industries, Ltd.) and the resulting solution was orally administered at 30 mg/kg at 1 hour before the induction. The swelling ratio of the auricle was calculated according to the following equation: Auricular Swelling Ratio(%)=(A−B)/B×100

[6] = tested on: colonic disorders in TNBS-induced colitis model; assay: Colonic disorders in TNBS-induced colitis model; assay type: in vivo; conditions: Wistar rat, oral 3 mg/kg once on TNBS day then twice a day for 4 days, colon 5 days after TNBS
Excerpt: as §1
To each Slc:Wistar rat (male, 12-week old, Japan SLC, Inc.), TNBS (Wako Pure Chemical Industries, Ltd.) dissolved in ethanol was rectally administered under anesthesia, and the TNBS solution was held in the rectum for 1 hour to produce the colitis model. These rats had been fasted from 2 days before the TNBS administration to the day of the TNBS administration. Five days after the TNBS administration, the colon was isolated from the each rat, and the macroscopic damage score (which is a total of adhesion score, diarrhea score and ulcer score) was recorded as an index of damage in the colon. The macroscopic damage score was calculated based on the scores of Dubigeon et al. (Eur. J. Pharmacol., 2001, Vol. 431, pp. 103-110) and the scores of Venkova et al. (J. Pharmacol. Exp. Ther., 2004, Vol. 308, pp. 206-213). […]

[7] = tested on: skin swelling response in type I allergic dermatitis model; assay: Skin swelling response in type I allergic dermatitis model; assay type: in vivo; conditions: BALB/c mouse, 20 μL of 0.5 w/v % solution applied to auricle 1 hour before induction
Excerpt: as §2
To each BALB/c mouse (female, 7-week old, Charles River Laboratories Japan, Inc.), mouse IgE anti-DNP antibody (0.05 mg/body, […] CORPORATION) was intravenously administered to passively sensitize the mouse. Twenty four hours after the sensitization, 20 μL of 0.38% DNFB (SIGMA) dissolved in acetone:olive oil (4:1) was applied to the auricle of the mouse to induce inflammation. From after the induction to 24 hours, the thickness of the auricle was measured with time using a Digimatic Indicator (Mitutoyo). Each test compound was dissolved in ethanol, and 20 μL of 0.5 w/v % solution was applied to the auricle at 1 hour before the induction.
The swelling ratio of the auricle was calculated according to the following equation. […] Auricular Swelling Ratio(%)=(A−B)/B×100

[8] = tested on: TNFα production; assay: Cytokine production suppressing activity using human whole blood (LPS stimulation); assay type: cell-based; conditions: LPS 200 ng/mL, 37° C., 5 hours
Procedure: Using human whole blood, the inhibitory action of Compound (I) on the TNFα production by LPS stimulation was studied by a method partially modified from the method described in Journal of Medicinal Chemistry (2003, Vol. 46, pp. 4676-4686).
A solution of each test compound in 100% DMSO and human blood were mixed in a 96-well flat-bottom plate. Thereafter, LPS (Final Concentration: 200 ng/mL) was added, and the resulting mixture was allowed to react at 37° C. for 5 hours (the final concentration of DMSO was 0.2%). After the reaction, the resultant was centrifuged for 20 minutes at room temperature, and the supernatant was collected. For the measurement of the TNFα amount in the supernatant, a human cytokine kit (CIS bio international) was used. As a comparative control compound, Comparative Compound 2 was used.

[9] = target: human p38 MAPK α (Homo sapiens (Human), UniProt Q16539); assay: Evaluation of p38 MAPK inhibitory activity (Alpha Screen, ATF2 phosphorylation); assay type: biochemical; conditions: p38α/SAPK2a 1.5 nM, ATP 100 μM, biotinylated ATF2 30 nM
Sequence of human p38 MAPK α (Q16539 whole entry): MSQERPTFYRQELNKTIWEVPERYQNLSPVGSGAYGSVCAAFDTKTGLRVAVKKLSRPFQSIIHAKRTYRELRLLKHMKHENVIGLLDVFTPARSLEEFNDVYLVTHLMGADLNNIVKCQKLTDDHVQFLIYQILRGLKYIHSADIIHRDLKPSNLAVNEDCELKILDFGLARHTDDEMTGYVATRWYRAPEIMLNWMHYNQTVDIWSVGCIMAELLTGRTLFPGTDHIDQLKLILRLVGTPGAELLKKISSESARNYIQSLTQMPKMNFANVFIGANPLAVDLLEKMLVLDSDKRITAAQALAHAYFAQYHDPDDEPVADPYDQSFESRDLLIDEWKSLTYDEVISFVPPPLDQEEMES
Procedure: Using human p38 MAPK α, the p38 MAPK inhibitory activity of Compound (I) was studied by a method partially modified from the method described in Current Medicinal Chemistry (2004, No. 11, pp. 721-730).
A solution of each test compound solution in 100% DMSO and a p38α/SAPK2a solution (Final Concentration: 1.5 nM) (Invitrogen) were added to a 384-well plate, and then the plate was incubated at room temperature in a dark place for 1 hour. Thereafter, ATP (Final Concentration: 100 μM), which is a phosphate donor, and biotinylated ATF2 (Final Concentration: 30 nM) (upstate), which is a substrate, were added, and the resulting mixture was allowed to react at room temperature in a dark place for 1 hour (the final concentration of DMSO was 0.25%). After the reaction, an anti-phosphorylated ATF2 antibody (Final Concentration: 1 nM) (Cell Signaling), anti-IgG acceptor beads (Final Concentration: 20 μg/mL) (PerkinElmer) and streptavidin donor beads (Final Concentration: 20 μg/mL) (PerkinElmer) were added, and the resultant was incubated at room temperature in a dark place for 1 hour. Using a microplate analyzer (Fusion-α, Packard) in Alpha Screen method (Amplified Luminescent Proximity Homogeneous Assay), the light emission was detected. The IC50 value of each compound was calculated by sigmoidal dose-response regression using Prism 4.02 (GraphPad Software, Inc.).

SMILES: NCC1(CC(=O)O)CCCCC1 [gabapentin, reference compound]
- pain threshold (sec), plantar test, compared to solvent-administered group [1]: significant difference

SMILES: COc1c(NC(=O)N[C@@H]2Cc3ccccc3[C@@H]2O)cc(C(C)(C)C)cc1C(C)(C)C#N [Comparative Compound 3, 1-(5-tert-butyl-3-(2-cyanopropan-2-yl)-2-methoxyphenyl)-3-((1S,2R)-1-hydroxy-2,3-dihydro-1H-indene-2-yl)urea, reference compound]
- Suppression Ratio of TNFα production [2]: 17.0%
- microsomal CLint at 5 μM [3]: 450 µL/min/mg

SMILES: COc1c(NC(=O)N[C@H]2Cc3c(F)cccc3[C@H]2O)cc(C(C)(C)C)cc1[C@@H](O)C(F)(F)F (single isomer, unassigned) [Compound 50b]
- stool consistency score (total) [4]: 6.5±0.6
- suppression ratio of auricular swelling, oral administration ([5]; 30 mg/kg oral 1 hour before induction): 54.4%
- suppression ratio of auricular swelling, auricular application ([5]; 20 μL of 0.5 w/v % solution on auricle 1 hour before induction): 48.0%
- macroscopic damage score [6]: 5.2±1.1
- suppression ratio on immediate response (auricular swelling AUC 0-4 hours) [7]: 33.4%
- suppression ratio on late response (auricular swelling AUC 5-10 hours) [7]: 50.2%
- IC50 [8]: 46 nM
- IC50 [9]: 35 nM
